# Assay results published in paper PMC5115179 (Pharmacology Research & Perspectives, 2016).
# How the values were obtained:
# [1] = NCS‐382–diclofenac interaction study (inhibition of NCS‐382 glucuronidation); conditions: mouse; for AUC(0-t): both, in vivo, 25 mg/kg
# [2] = test system: UGT2B7; set-up: method as in Miners et al. 1997; Ammon et al. 2000; King et al. 2001; conditions: ref Miners et al. 1997; Ammon et al. 2000; King et al. 2001; cited from earlier work
# [3] = test system: gamma‐butyrolactone‐treated mice; assay: GBL‐mediated response protection by NCS‐382 in the absence and presence of diclofenac; format: in vivo; conditions: mouse; given alone i.p. (NCS‐382 300 mg/kg or diclofenac 25 mg/kg) 30 min before GBL 100 mg/kg i.p.
# [4] = test system: GHB binding sites; set-up: method as in Wellendorph et al. 2009; conditions: ref Wellendorph et al. 2009; cited from earlier work
# [5] = test system: UGT1A9; set-up: method as in Miners et al. 1997; Ammon et al. 2000; King et al. 2001; conditions: ref Miners et al. 1997; Ammon et al. 2000; King et al. 2001; cited from earlier work
# [6] = test system: monocarboxylate transporter 1 (MCT1); set-up: method as in Tamai et al. 1999; Wang and Morris 2007; conditions: ref Tamai et al. 1999; Wang and Morris 2007; cited from earlier work
# [7] = Excretion of NCS‐382 in urine and feces (metabolic cages); format: in vivo; conditions: mouse, reanalyzed samples of study 1
# Protocol: To ensure sufficient volumes of urine could be collected in each of the 2 h time intervals (baseline, 0–2, 2–4, 4–6, 6–8 h), three mice were dosed simultaneously and their urine and feces pooled for analysis. The total dose in μg administered to the three animals was therefore used to calculate the percent of the dose excreted in the urine pooled from all three mice. Animals were allowed ad libitum access to food and water of which the intake of each was monitored.
# Samples (3 μL) were injected onto a Kinetex PFP (50 × 2.1 mm, 1.7 μm particle size) UPLC column and eluted with a binary gradient consisting of water with 0.1% formic acid (mobile phase A) and methanol with 0.1% formic acid (mobile phase B). […] Eluent was directed to waste for the initial 0.4 min then to an ABI Sciex 6500 Qtrap tandem mass spectrometer. […] Where necessary, samples were diluted in blank matrices for analysis.
# Pharmacokinetic outcomes were obtained via standard noncompartmental methods using Kinetica (version 5.1, Thermo Fisher Scientific, Waltham, MA). The maximum concentration (C max) was obtained directly from the concentration–time profiles. Area under the concentration–time curve (AUC) from time zero to the last collected time point was determined using the trapezoidal method with linear up/log down interpolation.
# [8] = treatment Diclofenac 25 mg/kg alone
# [9] = treatment NCS‐382 300 mg/kg + Diclofenac 25 mg/kg
# [10] = treatment NCS‐382 300 mg/kg alone
compound,measurement,setting,value
"O=C(O)Cc1ccccc1Nc1c(Cl)cc(O)cc1Cl [4‐OH‐Diclofenac, 4′‐hydroxydiclofenac]","Sera AUC0–2 h [90% CI], relative quantification (peak area ratio)",[1]; [8],6.76 [5.18–8.33] PAR*h
same,"Sera AUC0–2 h [90% CI], relative quantification (peak area ratio)",[1]; [9],8.28 [7.60–8.97] PAR*h
"O=C(O)Cc1cc(O)ccc1Nc1c(Cl)cccc1Cl [5‐OH‐Diclofenac, 5‐hydroxydiclofenac]",AUC(0-t),[1],61.3 µM·h
same,Brain AUC0–2 h [90% CI],[1]; [8],4.60 [4.55–4.65] nmol g/tissue*h
same,Brain AUC0–2 h [90% CI],[1]; [9],5.20 [4.77–5.62] ^a nmol g/tissue*h
O=C(Cc1ccccc1Nc1c(Cl)cccc1Cl)O[C@@H]1O[C@H](C(=O)O)[C@@H](O)[C@H](O)[C@H]1O [Diclofenac glucuronide],"Brain AUC0–2 h [90% CI], relative quantification (peak area ratio)",[1]; [8],5.87 [4.46–7.28] PAR*h
same,"Sera AUC0–2 h [90% CI], relative quantification (peak area ratio)",[1]; [8],8.57 [6.09–11.04] PAR*h
same,"Brain AUC0–2 h [90% CI], relative quantification (peak area ratio)",[1]; [9],3.96 [3.25–4.67] PAR*h
same,"Sera AUC0–2 h [90% CI], relative quantification (peak area ratio)",[1]; [9],4.67 [4.21–5.13] ^a PAR*h
O=C(O)Cc1ccccc1Nc1c(Cl)cccc1Cl [Diclofenac],Ki,[2],[…]
same,time to loss of motor function compared to vehicle control,[3],did not have a measureable effect
same,binding to GHB binding sites in rat brain,[4],ligand for the GHB binding sites in rat brain
same,AUC(0-t),[1],232 µM·h
same,Brain AUC0–2 h [90% CI],[1]; [8],33.8 [28.2–39.4] nmol/g/tissue*h
same,Brain AUC0–2 h [90% CI],[1]; [9],44.9 [39.5–50.3] ^a nmol/g/tissue*h
same,Ki,[5],11 µM
"O=C(O)CCCO [GHB, gamma‐hydroxybutyric acid]",Km,[6],4.6 to 7.7 mM
O=C(O)/C=C1\CCCc2ccccc2C1=O [NCS dehydrogenation],detection of NCS‐382 metabolites in urine and feces,[7],found in neither
same,"Sera AUC0–2 h [90% CI], relative quantification (peak area ratio)",[1]; [9],2.72 [2.26–3.18] ^a PAR*h
same,"Sera AUC0–2 h [90% CI], relative quantification (peak area ratio)",[1]; [10],1.99 [1.82–2.16] PAR*h
O=C(O)/C=C1\CCCc2ccccc2C1O[C@@H]1O[C@H](C(=O)O)[C@@H](O)[C@H](O)[C@H]1O (stereo partly shown) [NCS‐Glucuronide],detection of NCS‐382 metabolites in urine and feces,[7],detectable in both the urine and feces
same,"Brain AUC0–2 h [90% CI], relative quantification (peak area ratio)",[1]; [9],4.58 [3.61–5.55] PAR*h
same,"Sera AUC0–2 h [90% CI], relative quantification (peak area ratio)",[1]; [9],2.86 [2.55–3.18] PAR*h
same,"Brain AUC0–2 h [90% CI], relative quantification (peak area ratio)",[1]; [10],3.28 [2.53–4.03] PAR*h
same,"Sera AUC0–2 h [90% CI], relative quantification (peak area ratio)",[1]; [10],3.65 [2.65–4.65] PAR*h
